According to US6391899B1, “Compounds and compositions for treating tissue ischemia” (North Shore—Long Island Jewish Research Institute, priority 1998, dated 2002):
pEC50, pIC50: −log10 of the molar value. Where two headings read alike, the source gives them in different places.

Tests used:
[1] = test system: glial cell cultures (HTB14); details: for inhibition of 3-aminopropanal-induced cell death: HTB14, 3 hours pretreatment, then 3-aminopropanal 5 hours, MTT
rat brain cortex = details: for protection against spermine-mediated intracortical damage, systemic administration: i.p. treatment, intracortical spermine 25 μg, infarct volume 48 hr; for cell necrosis and apoptosis at the injection zone (eosin, TUNEL staining): intracortical microinjection, histology 24 hr
glial cells (HTB14) = test: Apoptosis detection in glial cells (TUNEL flow cytometry, DNA fragmentation); assay type: cell-based, human; details: for development of TUNEL-positivity in 3-aminopropanal-treated glial cells: iNOS inhibitor added, cytofluorography
Procedure: (§1) Additional evidence of apoptosis by flow cytometric detection of DNA strand breaks was obtained using the terminal deoxynucleotidyl taansferase mediated dUTP nick end labeling TUNEL) method (Gavrieli et al., J. Cell. Biol 119:493-501, 1992). Terminal deoxynucleotidyl transferase mediated dUTP nick end labeling (TUNEL) staining was performed on cell cultures treated with 3-aminopropanal, as indicated. Cells were harvested and collected by centrifugation at 1,500 rpm for 5 min. The pellets were fixed with 1×ORTHO Permeafix (Orthodiagnostics) at room temperature for 40 min. After washing with Dulbecco's phosphate-buffered saline containing 1% bovine serum albumin (PBS-BSA), cells were stained by the TUNEL method using the Oncor Apop Tag Direct Fluorescein kit (Oncor), in accordance with the manufacturer's instructions. A negative control was performed by preparing a reaction solution that was devoid of TdT. A Becton Dickinson flow cytometer was used for all analyses; five to ten thousand events (ungated) were collected according to a single color procedure.
(§2) DNA samples from HTB11 or HTB14 cells (20-30×10^6 cells) were assayed for strand breakage by resuspending harvested cells (treated with 3-AP or control) in a reaction buffer containing proteinase K, and incubating overnight at 55° C. RNase was added to a final concentration of […] and the samples were incubated at 37° C. for one hour. DNA was extracted three times with phenol/chloroform and twice with chloroform and precipitated in two volumes of chilled 100% ethanol and 0.3M sodium acetate (pH 5.2). The DNA was resuspended in 50 μl of dH2O, fractionated by 1.5% agarose gel electrophoresis, and stained with SYBR Green I nucleic acid stain (Molecular Probes).
(§3) There was also no evidence of apoptosis as measured with Annexin V, a method used to detect loss of cell membrane phospholipid asymmetry that has be associated with apoptosis. Annexin V/propidium iodide (PI) staining was performed using a kit in accordance to the manufacturer's instructions (Me Apoptosis Detection Kit, R&D Systems, Minneapolis). Cells were analyzed by flow cytometry within one hour of completion of staining. The AnnexinV-FITC and PI signals were quantitated independently according to a two-color flow cytometric procedure.

polyamine oxidase = test: Polyamine oxidase activity in ischemic brain homogenates (conversion of added spermine, HPLC); assay type: biochemical, rat; details: for polyamine oxidase activity in ischemic brain homogenate (FIG. 1): 1 mM added 5 minutes prior to spermine; for pIC50: homogenates of ischemic brain, inhibitor added 5 minutes prior to spermine, read-out: I.C.50 for polyamine oxidase activity
Procedure: To measure tissue polyamine oxidase activity, brain homogenates were prepared from the anatomic region perfused by the middle cerebral artery, and total polyamine oxidase activity determined using a method described previously (Seiler and Bolkenius, Neurochem. Res. 10:529-544, 1985; Seiler et al., Med. Biol. 59:334-346, 198 1; and […] et al., J. Neurosci. Res. 28:434-441, 1991), relying on the metabolic conversion of added spermine.

[2] = test system: cultured hippocampal neurons; test: NMDA neurotoxicity in cultured hippocampal neurons (trypan blue); assay type: cell-based
Procedure: When aminoguanidine was added to primary neuronal cultures treated with N-methy-D-aspartic acid (NMDA), no attenuation of cytotoxicity was observed (Table III). […] Cultured hippocampal neurons (12-15 days in vitro) were exposed to NMDA (500 μM) for 5 min in MEM (without serum) supplemented with glutamine (100 μM) and glycine (10 μM), rinsed in Earle's Basic Salt Solution, and incubated under standard conditions for 24 hr (37° C.). Neuronal survival was assessed microscopically, by counting a sample of cell somas for uptake vs. exclusion of trypan blue. Aminoguanidine or the non-competitive excitatory amino acid receptor antagonist, MK-801, was added just prior to NMDA and in the final rinse at the concentrations shown. Data are mean±s.e. of nine wells from three replicate experiments.

[3] = test system: neuronal cell cultures (HTB11); details: HTB11 cells, overnight incubation
[4] = test system: glial cell cultures (HTB14); test: Toxicity of test compounds in parallel glial cultures incubated without 3-AP; assay type: cell-based, human; details: Table V; HTB14, parallel cultures without 3-AP
Procedure: In an alternative embodiment of the screening assay of Example 3, various concentrations of the test compound (e.g. 10-1000 μM) are incubated with the indicator cells in presence of a fixed concentration fo 3-AP (e.g, 200 μM).

[5] = test system: glial cell cultures (HTB14); test: cells; details: Homo sapiens, read-out: 50% Effective dose (protection against 3-AP)
focal cerebral ischemia = details: for volume of brain tissue infarcted vs vehicle-treated controls: i.p. beginning 15 minutes after onset of ischemia, total dose PICVA-25 and PICVA-27 200 mg/kg, PICVA-13 400 mg/kg
[6] = test system: neuronal cell cultures (HTB11); test: Apoptosis and cell death detection in neuronal cells (TUNEL, Annexin V, DNA electrophoresis, scatter analysis); assay type: cell-based, human; details: for induction of apoptosis in neuronal cells: HTB11, TUNEL, Annexin V, camptothecin 15 μg/ml for 20 hr
Procedure: as §1
as §2, with “The DNA was resuspended in 50 μl of dH2O, fractionated by 1.5% agarose gel electrophoresis, and stained with SYBR Green I nucleic acid stain (Molecular Probes).” left out
as §3, with “Annexin V/propidium iodide (PI) staining was performed using a kit in accordance to the manufacturer's instructions (Me Apoptosis Detection Kit, R&D Systems, Minneapolis).” left out

[7] = test system: intracerebral TNF synthesis; test: Intracerebral TNF synthesis after central administration; assay type: in vivo; details: centrally administered; data not illustrated
[8] = test system: primary rat astroglial cell cultures; test: 3-aminopropanal cytotoxicity in primary astroglial cultures; assay type: cell-based
iNOS = target: T1, iNOS (Mus musculus, UniProt P29477); test: iNOS activity in RAW 264.7 cell lysates; assay type: biochemical; details: 1 mM
T1 construct: iNOS activity measured in RAW 264.7 cell lysates; endogenous in cells; host or cells: RAW 264.7 cell lysates

[9] = with NMDA (500 μM) 5 min, MK-801 20 μM or aminoguanidine 1000 μM, 24 hr
[10] = 25 μg in 2 μl intracortical, assessed 48 hr later

T1 sequence (P29477 whole entry): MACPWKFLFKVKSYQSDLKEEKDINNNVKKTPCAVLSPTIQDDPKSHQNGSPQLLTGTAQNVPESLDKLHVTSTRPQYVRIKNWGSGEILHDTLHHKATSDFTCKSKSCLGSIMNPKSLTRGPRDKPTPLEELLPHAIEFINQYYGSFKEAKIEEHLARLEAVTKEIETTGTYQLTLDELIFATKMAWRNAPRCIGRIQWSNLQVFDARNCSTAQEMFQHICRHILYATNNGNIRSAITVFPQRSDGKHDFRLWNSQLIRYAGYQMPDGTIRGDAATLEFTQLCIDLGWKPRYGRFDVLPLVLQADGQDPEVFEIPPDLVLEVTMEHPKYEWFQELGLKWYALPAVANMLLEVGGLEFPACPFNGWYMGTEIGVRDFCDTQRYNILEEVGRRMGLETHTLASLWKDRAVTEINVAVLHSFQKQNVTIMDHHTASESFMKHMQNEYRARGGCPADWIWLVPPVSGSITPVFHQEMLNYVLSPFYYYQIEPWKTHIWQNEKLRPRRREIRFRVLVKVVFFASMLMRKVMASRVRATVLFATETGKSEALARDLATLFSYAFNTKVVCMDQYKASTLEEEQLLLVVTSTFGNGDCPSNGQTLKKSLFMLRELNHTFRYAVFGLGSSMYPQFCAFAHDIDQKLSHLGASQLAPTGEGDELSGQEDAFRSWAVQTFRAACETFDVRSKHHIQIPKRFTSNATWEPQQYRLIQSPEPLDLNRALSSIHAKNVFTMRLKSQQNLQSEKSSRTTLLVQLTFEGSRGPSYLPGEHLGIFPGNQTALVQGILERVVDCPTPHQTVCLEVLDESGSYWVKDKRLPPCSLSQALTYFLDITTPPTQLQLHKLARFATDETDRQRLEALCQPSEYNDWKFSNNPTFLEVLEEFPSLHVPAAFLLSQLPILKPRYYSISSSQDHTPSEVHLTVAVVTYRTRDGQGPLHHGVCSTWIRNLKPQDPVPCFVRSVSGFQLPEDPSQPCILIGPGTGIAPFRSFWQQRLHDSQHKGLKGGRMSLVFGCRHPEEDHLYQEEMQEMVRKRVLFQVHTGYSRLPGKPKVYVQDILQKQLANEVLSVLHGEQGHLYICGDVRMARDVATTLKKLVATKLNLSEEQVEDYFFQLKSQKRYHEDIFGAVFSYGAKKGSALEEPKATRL

## Ac-YVAD-CMK
[1]
  inhibition of 3-aminopropanal-induced cell death: conferred dose-dependent inhibition

## N=C(N)NN [aminoguanidine]
Rat brain cortex; given intracortically simultaneously with spermine
  protection against intracortical spermine-mediated cell death, intracortical administration: conferred significant protection
Rat brain cortex
  protection against spermine-mediated intracortical damage, systemic administration: conferred significant protection
Rat brain cortex; intracortical 3-aminopropanal
  effect on direct cytotoxicity of intracortical 3-aminopropanal: failed to significantly attenuate
Rat brain cortex; intracortical spermine
  effect on spermine-induced cell necrosis and apoptosis (histology): significantly inhibited
Glial cells (HTB14)
  development of TUNEL-positivity in 3-aminopropanal-treated glial cells: failed to attenuate
Polyamine oxidase
  polyamine oxidase activity in ischemic brain homogenate (FIG. 1): inhibited
  pIC50: 3.40
[2]; [9]
  Neurotoxicity (% dead): 79 ± 4 % dead
[2]; without NMDA, aminoguanidine 1000 μM alone
  Neurotoxicity (% dead): 7 ± 2 % dead
[3]
  LD50 for 3-aminopropanal in the presence of the PAO inhibitor vs without: similar

## O=C(O)c1cc(Br)c[n+](CC(=O)c2ccccc2)c1.[Br-] [AP22, N-(2-phenyl-2-oxoethyl)-3-bromo-5-carboxypyridinium bromide]
[4]
  50% Toxic dose: 1 mM
[5]
  pEC50: 3.70

## O=C(C[n+]1ccsc1)c1ccccc1.[Br-] [p25, 3-(2-phenyl-2-oxoethyl)-thiazolium bromide]
Focal cerebral ischemia
  volume of brain tissue infarcted vs vehicle-treated controls: significantly reduced
Focal cerebral ischemia; rats with focal cerebral ischemia
  mortality associated with treatment in the in vivo screening tests: 38%

## NC(=O)c1cc[n+](CC(=O)c2ccccc2)cc1C(N)=O [AP21, N-(2-phenyl-2-oxoethyl)-3,4-dicarboxyamide-pyridinium bromide]
[1]; read-out: 50% Effective dose (protection against 3-AP), Table V, HTB14, fixed 3-AP (e.g. 200 μM)
  pEC50: 4.00

## NCCCCN [putrescine]
Rat brain cortex; [10]
  brain damage after intracortical microinjection (TTC staining): cell death was not observed
Rat brain cortex
  cell necrosis and apoptosis at the injection zone (eosin, TUNEL staining): not observed

## O=C(C[n+]1ccccc1)c1ccccc1.[Br-] [p27a, N-(2-phenyl-2-oxoethyl)-pyridinium bromide]
[4]
  50% Toxic dose: 5 mM
[5]
  pEC50: 3.37
Focal cerebral ischemia; Lewis, rat, in vivo
  mortality associated with treatment in the in vivo screening tests: 25%
Focal cerebral ischemia
  volume of brain tissue infarcted vs vehicle-treated controls: significantly reduced

## CNC(=N)NCCC[C@H](N)C(=O)O [L-NMMA, L-N^G-monomethylarginine]
Glial cells (HTB14)
  development of TUNEL-positivity in 3-aminopropanal-treated glial cells: failed to attenuate

## CC[C@@]1(O)C(=O)OCc2c1cc1n(c2=O)Cc2cc3ccccc3nc2-1 [camptothecin]
[6]
  induction of apoptosis in neuronal cells: Apoptosis was induced

## NCCCCNCCCN [spermidine]
Rat brain cortex; [10]
  brain damage after intracortical microinjection (TTC staining): brain tissue damage

## NCCC=O [3-aminopropanal]
[6]
  induction of apoptosis in neuronal cells: did not induce apoptosis
[6]; HTB11 neurons after 3-aminopropanal treatment
  cell death by forward scatter/side scatter analysis: 55.7%
Rat brain cortex
  cell necrosis and apoptosis at the injection zone (eosin, TUNEL staining): both cellular necrosis and programmed cell death
Rat brain cortex; rat, in vivo
  brain damage after intracortical microinjection (TTC staining): caused significant cytotoxicity
Glial cells (HTB14); 13 hours of exposure to 275 μM
  glial cells stained TUNEL-positive: 76%
Glial cells (HTB14); HTB-14 glial cells exposed to 3-aminopropanal
  apoptosis-specific DNA fragmentation: apoptosis-specific DNA fragmentation pattern was observed
[7]
  intracerebral TNF synthesis: directly stimulated
[8]
  cytotoxic LD50: 80 ± 9 µM

## Ac-DEVD-CHO
[1]
  inhibition of 3-aminopropanal-induced cell death: not

## NCCCNCCCCNCCCN [spermine]
Rat brain cortex
  cell necrosis and apoptosis at the injection zone (eosin, TUNEL staining): caused cell necrosis and apoptosis
Rat brain cortex; rat, in vivo
  brain damage after intracortical microinjection (TTC staining): brain tissue damage

## CCN(CC)CCCC(C)Nc1ccnc2cc(Cl)ccc12 (stereo not shown) [chloroquine]
Rat brain cortex
  protection against spermine-mediated intracortical damage, systemic administration: conferred significant protection
Polyamine oxidase
  polyamine oxidase activity in ischemic brain homogenate (FIG. 1): inhibited
  pIC50: 4.40
Focal cerebral ischemia; rat, in vivo
  systemic homeostatic responses to cerebral ischemia (blood pressure, heart rate, body temperature, arterial blood gases): did not significantly alter
iNOS
  iNOS activity: 11800±900 DPM/mg protein

## C[C@]12N[C@H](Cc3ccccc31)c1ccccc12 [MK-801]
[2]; [9]
  Neurotoxicity (% dead): 8 ± 3 % dead

## CN[C@H](CC(=O)O)C(=O)O [NMDA, N-methy-D-aspartic acid]
[2]; NMDA (500 μM) alone, 5 min exposure, 24 hr
  Neurotoxicity (% dead): 88 ± 4 % dead
